We go through three compounds from paper PMC4685510, “A Cell Biologist’s Field Guide to Aurora Kinase Inhibitors” (Frontiers in Oncology, 2015).

Common to all, as to assay: biochemical
Format in all cases: biochemical

Assay [1] deals with 363 human kinases (including Aurora A/B/C) (Homo sapiens, UniProt Q13882). Particulars: BRK, [ATP] 100 µM; for remaining activity at 0.1 µM: 100 nM; for remaining activity at 0.1 µM / remaining activity at 0.5 µM: read-out: % Enzyme Activity (relative to DMSO controls).
From the text: (§1) However, the Aurora A/B selectivity ratios derived from our in vitro and in vivo data can be compared to prioritize inhibitors.
Assay [2] concerns the target T1, 363 human kinases (including Aurora A/B/C) (Homo sapiens, UniProt Q9UBE8).
T1 sequence (Q9UBE8 1-527): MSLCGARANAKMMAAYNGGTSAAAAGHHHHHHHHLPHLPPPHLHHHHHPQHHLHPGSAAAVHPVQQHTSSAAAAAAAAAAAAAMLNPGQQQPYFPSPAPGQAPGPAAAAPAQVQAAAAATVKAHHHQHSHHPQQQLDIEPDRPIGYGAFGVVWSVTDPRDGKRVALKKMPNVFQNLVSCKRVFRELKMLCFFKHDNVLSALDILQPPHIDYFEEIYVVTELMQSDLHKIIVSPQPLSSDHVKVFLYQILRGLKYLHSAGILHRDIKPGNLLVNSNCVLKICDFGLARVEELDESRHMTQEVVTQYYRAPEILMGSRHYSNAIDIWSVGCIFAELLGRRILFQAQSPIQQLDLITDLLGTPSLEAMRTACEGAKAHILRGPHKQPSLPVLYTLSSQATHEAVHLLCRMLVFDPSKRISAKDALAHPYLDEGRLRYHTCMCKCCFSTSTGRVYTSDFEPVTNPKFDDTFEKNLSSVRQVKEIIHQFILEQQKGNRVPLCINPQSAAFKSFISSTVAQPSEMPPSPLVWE
The settings on record: NLK; for remaining activity at 0.1 µM: 100 nM; for remaining activity at 0.1 µM / remaining activity at 0.5 µM: read-out: % Enzyme Activity (relative to DMSO controls).
From the text: as §1

Assay [3] deals with 363 human kinases (including Aurora A/B/C) (Homo sapiens, UniProt P19784). The settings on record: CK2a2, [ATP] 30 µM; for remaining activity at 0.1 µM: 100 nM; for remaining activity at 0.1 µM / remaining activity at 0.5 µM: read-out: % Enzyme Activity (relative to DMSO controls).
From the text: as §1
The target of assay [4] is 363 human kinases (including Aurora A/B/C) (Homo sapiens, UniProt P06493). The settings on record: for remaining activity at 0.1 µM: 100 nM; for remaining activity at 0.1 µM / remaining activity at 0.5 µM: read-out: % Enzyme Activity (relative to DMSO controls); for remaining activity at 0.5 µM / % Enzyme Activity (relative to DMSO controls): 500 nM.
From the text: as §1
Assay [5] concerns the target T2, 363 human kinases (including Aurora A/B/C) (Homo sapiens, UniProt Q6P3R8).
T2 sequence (Q6P3R8 1-708): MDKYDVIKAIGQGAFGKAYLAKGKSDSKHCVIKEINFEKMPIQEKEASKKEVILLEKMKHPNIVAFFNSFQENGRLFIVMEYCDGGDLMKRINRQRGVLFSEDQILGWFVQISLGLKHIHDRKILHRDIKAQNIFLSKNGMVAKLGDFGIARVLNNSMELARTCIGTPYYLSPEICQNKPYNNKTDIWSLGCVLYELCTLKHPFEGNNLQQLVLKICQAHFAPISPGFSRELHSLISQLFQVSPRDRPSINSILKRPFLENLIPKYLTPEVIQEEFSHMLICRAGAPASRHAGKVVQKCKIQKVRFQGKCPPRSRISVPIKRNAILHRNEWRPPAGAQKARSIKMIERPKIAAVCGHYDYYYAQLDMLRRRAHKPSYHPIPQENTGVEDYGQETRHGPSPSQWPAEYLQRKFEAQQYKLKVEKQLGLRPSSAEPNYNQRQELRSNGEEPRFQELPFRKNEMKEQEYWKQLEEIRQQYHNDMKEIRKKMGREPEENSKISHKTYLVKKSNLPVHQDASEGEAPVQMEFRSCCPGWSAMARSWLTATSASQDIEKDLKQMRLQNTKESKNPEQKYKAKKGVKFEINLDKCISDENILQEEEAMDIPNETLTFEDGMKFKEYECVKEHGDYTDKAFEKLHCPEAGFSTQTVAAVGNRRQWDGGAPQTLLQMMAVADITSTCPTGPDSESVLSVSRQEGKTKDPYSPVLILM
The settings on record: NEK5; for remaining activity at 0.1 µM: 100 nM; for remaining activity at 0.1 µM / remaining activity at 0.5 µM: read-out: % Enzyme Activity (relative to DMSO controls).
From the text: as §1

Assay [6] addresses 363 human kinases (including Aurora A/B/C) (Homo sapiens, UniProt P22694). Particulars: PKAcb; for remaining activity at 0.1 µM: 100 nM; for remaining activity at 0.1 µM / remaining activity at 0.5 µM: read-out: % Enzyme Activity (relative to DMSO controls).
From the text: as §1
The target in assay [7] is T3, 363 human kinases (including Aurora A/B/C) (Homo sapiens, UniProt O14965).
T3 sequence (O14965 1-403): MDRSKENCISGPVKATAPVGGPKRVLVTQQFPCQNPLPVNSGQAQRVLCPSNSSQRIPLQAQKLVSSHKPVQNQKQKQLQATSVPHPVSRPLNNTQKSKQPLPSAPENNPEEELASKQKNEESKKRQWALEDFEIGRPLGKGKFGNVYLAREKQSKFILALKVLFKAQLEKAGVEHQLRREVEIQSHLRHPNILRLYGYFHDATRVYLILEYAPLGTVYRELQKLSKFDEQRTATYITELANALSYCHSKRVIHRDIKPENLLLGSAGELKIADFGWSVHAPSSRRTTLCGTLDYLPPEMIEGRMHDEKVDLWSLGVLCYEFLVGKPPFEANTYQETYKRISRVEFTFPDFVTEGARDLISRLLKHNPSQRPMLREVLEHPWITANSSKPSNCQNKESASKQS
The settings on record: [ATP] 2.5 µM; for remaining activity at 0.1 µM: 100 nM.
From the text: as §1

Assay [8] deals with 363 human kinases (including Aurora A/B/C) (Homo sapiens, UniProt Q9UM73). Particulars: ALK, [ATP] 50 µM; for remaining activity at 0.1 µM: 100 nM; for remaining activity at 0.1 µM / remaining activity at 0.5 µM: read-out: % Enzyme Activity (relative to DMSO controls).
From the text: as §1
Assay [9] concerns 363 human kinases (including Aurora A/B/C).
From the text: as §1
Assay [10] deals with 363 human kinases (including Aurora A/B/C) (Homo sapiens, UniProt P53671). Particulars: LIMK2; for remaining activity at 0.1 µM: 100 nM; for remaining activity at 0.1 µM / remaining activity at 0.5 µM: read-out: % Enzyme Activity (relative to DMSO controls).
From the text: as §1
In assay [11] the target is 363 human kinases (including Aurora A/B/C) (Homo sapiens, UniProt P12931). The settings on record: c-Src, [ATP] 100 µM; for remaining activity at 0.1 µM: 100 nM; for remaining activity at 0.1 µM / remaining activity at 0.5 µM: read-out: % Enzyme Activity (relative to DMSO controls).
From the text: as §1

Values joined by “and” are separate entries in the source; they are usually repeats but may differ in a detail not shown here. Identical values can stand only once. Like-named read-outs stand apart in the source and are kept apart here.

Sequence of 363 human kinases (including Aurora A/B/C) (Homo sapiens, UniProt Q13882) (Q13882 whole entry): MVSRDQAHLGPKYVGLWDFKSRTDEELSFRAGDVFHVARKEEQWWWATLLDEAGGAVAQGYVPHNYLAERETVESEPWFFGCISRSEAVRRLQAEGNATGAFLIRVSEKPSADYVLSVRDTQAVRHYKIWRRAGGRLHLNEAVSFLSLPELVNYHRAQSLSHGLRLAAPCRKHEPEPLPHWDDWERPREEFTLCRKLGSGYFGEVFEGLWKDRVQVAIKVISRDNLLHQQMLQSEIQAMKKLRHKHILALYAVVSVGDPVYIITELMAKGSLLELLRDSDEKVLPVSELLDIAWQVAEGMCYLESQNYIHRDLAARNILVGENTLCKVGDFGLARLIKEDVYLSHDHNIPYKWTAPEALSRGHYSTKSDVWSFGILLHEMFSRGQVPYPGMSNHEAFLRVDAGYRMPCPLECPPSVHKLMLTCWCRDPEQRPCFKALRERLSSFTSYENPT
Sequence of 363 human kinases (including Aurora A/B/C) (Homo sapiens, UniProt P19784) (P19784 whole entry): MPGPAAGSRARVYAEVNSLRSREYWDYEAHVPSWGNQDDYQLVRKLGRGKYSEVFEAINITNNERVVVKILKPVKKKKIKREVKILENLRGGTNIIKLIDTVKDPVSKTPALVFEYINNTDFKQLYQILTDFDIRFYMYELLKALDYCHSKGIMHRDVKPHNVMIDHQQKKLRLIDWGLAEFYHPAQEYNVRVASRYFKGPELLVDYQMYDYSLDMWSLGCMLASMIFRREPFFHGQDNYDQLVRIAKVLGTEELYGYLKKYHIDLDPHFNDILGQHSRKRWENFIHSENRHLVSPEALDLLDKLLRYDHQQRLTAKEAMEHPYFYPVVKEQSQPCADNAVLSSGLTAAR
Sequence of 363 human kinases (including Aurora A/B/C) (Homo sapiens, UniProt Q9UM73) (Q9UM73 19-1620): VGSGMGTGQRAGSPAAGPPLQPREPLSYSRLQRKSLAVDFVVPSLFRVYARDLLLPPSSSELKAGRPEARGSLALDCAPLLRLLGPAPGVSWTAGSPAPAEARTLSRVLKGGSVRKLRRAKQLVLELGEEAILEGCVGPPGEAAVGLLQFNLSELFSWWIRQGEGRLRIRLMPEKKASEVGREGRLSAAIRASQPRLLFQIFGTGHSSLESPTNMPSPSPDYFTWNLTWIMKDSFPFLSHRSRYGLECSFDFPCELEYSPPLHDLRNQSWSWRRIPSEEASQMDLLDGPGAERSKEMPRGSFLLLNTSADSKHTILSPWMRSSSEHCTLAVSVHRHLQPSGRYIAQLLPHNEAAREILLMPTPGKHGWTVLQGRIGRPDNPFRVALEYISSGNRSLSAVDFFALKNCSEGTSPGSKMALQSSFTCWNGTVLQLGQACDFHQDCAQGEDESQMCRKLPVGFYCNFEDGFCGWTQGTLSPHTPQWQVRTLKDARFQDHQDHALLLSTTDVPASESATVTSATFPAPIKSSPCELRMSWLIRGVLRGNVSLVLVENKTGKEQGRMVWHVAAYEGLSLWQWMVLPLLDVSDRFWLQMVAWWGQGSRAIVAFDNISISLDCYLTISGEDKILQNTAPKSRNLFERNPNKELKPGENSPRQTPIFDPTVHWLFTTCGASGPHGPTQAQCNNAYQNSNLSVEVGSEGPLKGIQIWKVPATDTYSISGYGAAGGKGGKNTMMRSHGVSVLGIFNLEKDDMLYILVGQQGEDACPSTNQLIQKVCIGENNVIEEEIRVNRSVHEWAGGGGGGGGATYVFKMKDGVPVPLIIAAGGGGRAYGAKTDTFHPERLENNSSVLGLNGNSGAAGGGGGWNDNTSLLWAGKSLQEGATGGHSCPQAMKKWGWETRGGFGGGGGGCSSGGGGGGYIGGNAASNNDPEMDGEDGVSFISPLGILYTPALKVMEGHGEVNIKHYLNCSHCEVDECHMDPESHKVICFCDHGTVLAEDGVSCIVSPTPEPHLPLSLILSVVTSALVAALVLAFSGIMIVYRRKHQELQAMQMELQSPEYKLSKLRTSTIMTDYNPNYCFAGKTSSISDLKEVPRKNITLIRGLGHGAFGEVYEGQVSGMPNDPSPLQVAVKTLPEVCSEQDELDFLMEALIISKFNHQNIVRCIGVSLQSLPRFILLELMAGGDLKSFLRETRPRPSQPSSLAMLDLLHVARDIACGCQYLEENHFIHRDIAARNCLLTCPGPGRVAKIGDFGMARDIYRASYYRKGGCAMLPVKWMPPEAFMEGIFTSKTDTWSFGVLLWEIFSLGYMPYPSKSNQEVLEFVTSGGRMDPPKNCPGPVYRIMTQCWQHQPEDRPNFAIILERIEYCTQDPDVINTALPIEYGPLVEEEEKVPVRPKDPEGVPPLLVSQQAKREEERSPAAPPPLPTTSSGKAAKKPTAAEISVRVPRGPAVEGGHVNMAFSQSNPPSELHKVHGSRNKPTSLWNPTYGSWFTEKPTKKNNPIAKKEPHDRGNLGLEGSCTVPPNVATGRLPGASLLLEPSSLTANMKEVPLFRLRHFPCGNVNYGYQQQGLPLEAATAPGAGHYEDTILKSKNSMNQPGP
Sequence of 363 human kinases (including Aurora A/B/C) (Homo sapiens, UniProt P06493) (P06493 whole entry): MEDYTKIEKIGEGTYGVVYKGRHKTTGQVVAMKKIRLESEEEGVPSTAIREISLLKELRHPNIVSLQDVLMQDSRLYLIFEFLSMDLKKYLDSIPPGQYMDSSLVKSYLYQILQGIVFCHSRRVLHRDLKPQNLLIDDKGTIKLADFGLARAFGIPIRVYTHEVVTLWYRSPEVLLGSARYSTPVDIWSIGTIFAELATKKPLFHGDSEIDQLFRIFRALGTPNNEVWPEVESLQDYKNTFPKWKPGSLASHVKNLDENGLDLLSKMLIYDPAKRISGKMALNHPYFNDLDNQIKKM
Sequence of 363 human kinases (including Aurora A/B/C) (Homo sapiens, UniProt P12931) (P12931 whole entry): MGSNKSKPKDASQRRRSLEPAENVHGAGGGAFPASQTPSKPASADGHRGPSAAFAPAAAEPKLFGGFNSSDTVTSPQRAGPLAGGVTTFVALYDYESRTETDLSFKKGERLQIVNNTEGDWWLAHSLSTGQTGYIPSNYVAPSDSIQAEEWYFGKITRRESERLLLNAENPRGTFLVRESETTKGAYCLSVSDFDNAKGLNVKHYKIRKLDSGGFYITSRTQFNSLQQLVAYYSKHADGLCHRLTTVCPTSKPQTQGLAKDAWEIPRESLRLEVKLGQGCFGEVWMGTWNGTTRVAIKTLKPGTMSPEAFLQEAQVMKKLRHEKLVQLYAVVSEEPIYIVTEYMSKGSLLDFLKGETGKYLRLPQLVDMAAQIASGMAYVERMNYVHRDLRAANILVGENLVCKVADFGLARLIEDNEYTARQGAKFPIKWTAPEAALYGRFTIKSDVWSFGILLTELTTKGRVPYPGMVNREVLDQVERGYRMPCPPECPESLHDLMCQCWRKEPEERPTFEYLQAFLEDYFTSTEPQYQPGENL
Sequence of 363 human kinases (including Aurora A/B/C) (Homo sapiens, UniProt P53671) (P53671 whole entry): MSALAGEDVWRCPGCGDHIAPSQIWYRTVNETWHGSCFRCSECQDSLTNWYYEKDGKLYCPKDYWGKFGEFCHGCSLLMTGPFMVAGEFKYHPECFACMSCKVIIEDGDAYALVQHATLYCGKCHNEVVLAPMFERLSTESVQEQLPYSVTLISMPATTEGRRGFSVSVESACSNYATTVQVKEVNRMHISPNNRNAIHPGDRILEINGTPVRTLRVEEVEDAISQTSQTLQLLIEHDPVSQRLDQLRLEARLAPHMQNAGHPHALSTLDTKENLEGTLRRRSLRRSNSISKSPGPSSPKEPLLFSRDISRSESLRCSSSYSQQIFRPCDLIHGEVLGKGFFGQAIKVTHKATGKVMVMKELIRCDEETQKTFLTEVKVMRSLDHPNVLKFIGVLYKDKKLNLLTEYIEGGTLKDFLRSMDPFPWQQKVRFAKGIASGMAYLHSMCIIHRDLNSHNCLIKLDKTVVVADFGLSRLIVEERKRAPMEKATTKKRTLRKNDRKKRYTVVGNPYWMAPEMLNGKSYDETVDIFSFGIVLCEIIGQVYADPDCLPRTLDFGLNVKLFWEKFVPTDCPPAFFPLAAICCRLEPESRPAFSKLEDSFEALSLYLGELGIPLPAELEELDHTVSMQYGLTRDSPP

In the case of `CCn1cc(-c2ccnc3[nH]c(-c4cccc(CN(C)C)c4)cc23)c(-c2ccc(NC(=O)N(C)C)cc2)n1` [GSK1070916], the remaining activity at 0.1 µM in assay [1] was 76.6%; in assay [2] it was 95.7%; in assay [3], 89.1%; in assay [4] (CDK1/cyclin A, [ATP] 10 µM), 106%; in assay [4] (CDK1/cyclin B, [ATP] 20 µM), 84.6%; in [4] (CDK1/cyclin E, [ATP] 20 µM), 100%. Besides, the remaining activity at 0.1 µM in assay [5] was 59.1%; in assay [6], 98%; in [7] (read-out: % Enzyme Activity (relative to DMSO controls), Aurora A), 25.9%; in assay [8] it was 98.4%; in [10] it was 103%; in [11] it was 74.6%. Besides, the “Kinases inhibited ≥65% of control” value in assay [9] (100 nM, 363 human kinases, [ATP] ~ Km(ATP)) is “Aurora A and B as well as DDR1”.

As for `O=C(O)[C@]1(Cc2cccc(Nc3nccs3)n2)CC[C@@H](Oc2cccc(Cl)c2F)CC1` [MK-5108], the remaining activity at 0.1 µM is 20.2% in [1]; 100% in assay [2]; 87.2% in [3]; 92.7% in assay [4] (CDK1/cyclin A, [ATP] 10 µM); 95.3% in assay [4] (CDK1/cyclin B, [ATP] 20 µM); 101% in assay [4] (CDK1/cyclin E, [ATP] 20 µM). Further, the remaining activity at 0.1 µM in [5] turned out to be 153%; in [6], 97.1%; in [7] (Aurora A, read-out: % Enzyme Activity (relative to DMSO controls)) it was 2.38%; in assay [8], 67%; in assay [10], 92.8%; in assay [11], 39.2%. Moreover, the remaining activity at 0.5 µM was 3.11% in assay [1] (500 nM); 94.5% in assay [2] (500 nM); 86.5% in assay [3] (500 nM); 76.5% in assay [4] (CDK1/cyclin A, [ATP] 10 µM); 64% in [4] (CDK1/cyclin B, [ATP] 20 µM); 84.6% in [4] (CDK1/cyclin E, [ATP] 20 µM). Further, the remaining activity at 0.5 µM in assay [5] (500 nM) amounted to 104%; in assay [6] (500 nM), 98.5%; in assay [8] (500 nM), 30.9%; in assay [10] (500 nM) it was 76.2%; in assay [11] (500 nM), 12.5%. Further, the “Number of kinases inhibited at >65% of control” value in assay [9] is recorded as 75 kinases. Moreover, the “Number of kinases inhibited at >65% of control (including the Aurora kinases)” value in [9] was 32 kinases.

For the compound `O=C(c1cccc(Cl)c1F)N1CCN(Cc2cccc(Nc3nccs3)n2)CC1` [MK-8745], the “% Enzyme Activity (relative to DMSO controls)” value was determined as 29.01% in [1] (500 nM); 97.25% in [2] (500 nM); 85.44% in [3] (500 nM); 86.34% in assay [4] (CDK1/cyclin A, [ATP] 10 µM); 78.80% in assay [4] (CDK1/cyclin B, [ATP] 20 µM); 93.92% in assay [4] (CDK1/cyclin E, [ATP] 20 µM). In addition, the “% Enzyme Activity (relative to DMSO controls)” value was 128.29% in assay [5] (500 nM); 99.52% in [6] (500 nM); 0.37% in assay [7] (Aurora A, 500 nM); 78.97% in assay [8] (500 nM); 85.04% and 84.52% in assay [9] (LYN B, 500 nM); 98.11% and 97.15% in assay [9] (PKCb2, 500 nM). For the same compound, the “% Enzyme Activity (relative to DMSO controls)” value in [9] (PKG1b, 500 nM) is 109.42% and 102.59%; in assay [10] (500 nM), 97.95%; in assay [11] (500 nM) it was 35.90%. The remaining activity at 0.5 µM came to 29% in assay [1] (500 nM); 98.5% in [2] (500 nM); 85.8% in assay [3] (500 nM); 86.8% in assay [4] (CDK1/cyclin A, [ATP] 10 µM); 79.4% in [4] (CDK1/cyclin B, [ATP] 20 µM); 94.9% in assay [4] (CDK1/cyclin E, [ATP] 20 µM). Further, the remaining activity at 0.5 µM amounted to 130% in assay [5] (500 nM); 99.5% in assay [6] (500 nM); 0.55% in [7] (Aurora A, 500 nM, read-out: % Enzyme Activity (relative to DMSO controls)); 81% in [8] (500 nM); 98.4% in assay [10] (500 nM); 36.4% in [11] (500 nM). In addition, in assay [9] (500 nM), the “Kinases inhibited at >65% of control” value is given as “Aurora A, AXL, BRK, DDR1, EphA6, GSK3α/β, IRAK1, JNK1, LKB1, ROS1, Trk A/B/C, TYRO3, YES”. Besides, the “Number of kinases inhibited at >65% of control” value in assay [9] (500 nM) is 16 kinases.
